The record followed here is patent US20200369674A1, “ANTI-PAIN COMPOUND AND PREPARATION METHOD THEREOF” (LUNAN PHARMACEUTICAL GROUP CORPORATION, priority 2017, published 2020).

Assay [1] relates to ICR mice. The assay can be described thus: Hot plate test. The assay is classed as in vivo. The conditions noted are these: Mus musculus, po; 3 mg/kg intragastric, latency 2.0 hours after administration, hot plate 55° C.; read-out: PTE %. The protocol: (§1) ICR mice, 18-22 g, half of them being male and the other half being female, provided by the Department of Laboratory Animals, Peking University (License No.: SCXK (Beijing) 2016-0010).
The temperature of hot plate was adjusted to 55° C., and the responses of mouse such as licking hind feet and jumping were used as the observation indexes. The time from the placement of mice on copper plate to the appearance of the above responses was defined as latency time. The latency time was measured for three times 30 minutes before administration, and the average value thereof was used as basic threshold, or baseline latency (BL). The animals with a latency time greater than 15 s and less than 5 s were removed, and the residual mice were randomly grouped, 8 animals per group.
Vehicle control group (double-distilled water) and groups for samples to be tested (the compounds and doses thereof were shown in Table 1) were set. All drugs were dissolved in […] before administration, and given by intragastric administration. The latency time was measured 2.0 hours after administration. Percentage of Pain Threshold Elevated Rate (PTE %) of compound on mice was calculated according to the following formula:
PTE %=(latency time of test group−latency time of vehicle control group)/latency time of vehicle control group×100
(In hot-plate and tail-flick tests a longer latency is read as antinociception.)

Assay [2] concerns ICR mice. The assay can be described thus: Acetic acid writhing test. The assay is classed as in vivo. The conditions noted are these: Mus musculus, po, 2 h, 0.6% acetic acid ip two hours after administration, read-out: Inhibition rate (%). The method, then: as §1
ICR mice, half of them being male and the other half being female, were randomly grouped, 8 mice per group. Vehicle control group (double-distilled water), ibuprofen control group, and groups for samples to be tested (the compounds and doses thereof were shown in Table 2) were set. All drugs were dissolved in double-distilled water before administration, and given by intragastric administration at predetermined doses. Two hours after the administration, the mice were intraperitoneally injected with 0.6% acetic acid solution (10 ml/kg, ip), and the number of times the mice writhed (abdomen depressed, buttock raised, body elongated) was recorded within 5-20 minutes. The inhibition rate % of compound on writhing pain in mice was calculated according to the following formula.
Inhibition rate %=(number of writhing times in vehicle control group−number of writhing times in test group)/number of writhing times in vehicle control group×100
In general terms: In writhing tests, fewer writhes than in controls are read as antinociception.

For assay [3], the system named is ICR mice. In words: Formalin experiment. The assay is classed as in vivo. The conditions noted are these: Mus musculus, po, 2 h, 2.5% formalin two hours after administration, phase II 10-60 minutes, read-out: Phase II pain inhibition rate (%). The protocol: as §1
ICR mice, half of them being male and the other half being female, were randomly grouped, 8 mice per group. Vehicle control group (double-distilled water) and groups for samples to be tested were set, in which the compounds and doses thereof were shown in Table 3. All drugs were dissolved in double-distilled water before administration, and given by intragastric administration at predetermined doses. Two hours after administration, the mice were injected with 20 ul of 2.5% formalin solution in the right hind foot, and the time (s) of licking or biting foot was recorded as an index of pain response, in which 0-5 minutes was phase I, 10-60 minutes was phase II, and the total observation time was 60 minutes. The phase II pain inhibition rate of compound in mice was calculated according to the following formula:
Inhibition rate %=(time of licking or biting foot in vehicle control group−time of licking or biting foot in test group)/time of licking or biting foot in vehicle control group×100

Assay [4] deals with ICR mice. In words: Xylene-induced mouse ear swelling test (Effect Example 4). The assay is classed as in vivo. The arrangement: key to Inhibition rate (%): Symbol “—” indicates that the data obtained at this dose was not significantly different from the vehicle control group. The conditions noted are these: 50 uL xylene two hours after administration. The protocol:
as §1
ICR mice were randomly grouped, 8 mice per group, half of them being male and the other half being female. Vehicle control group (double-distilled water) and groups for samples to be tested (the compounds and doses thereof were shown in Table 4). All drugs were dissolved in double-distilled water immediately before administration, and given by intragastric administration at predetermined doses. Two hours after administration, 50 uL of xylene was smeared evenly on the inner and outer sides of right ear of mouse. After 30 minutes, the left and right ears of mouse were cut, and circular ear pieces of the same size were punched at the same position on the left and right ears, and weighed. The ear swelling inhibition rate of compound in mice was calculated according to the formula.
Inhibition rate %=(degree of ear swelling in vehicle control group−degree of ear swelling in test group)/degree of ear swelling in vehicle control group×100

Assay [5] has as its system CCI rats. The assay can be described thus: Mechanical stimulation paw withdrawal threshold (MWT) in CCI rats. The format is in vivo, SD rats. The conditions noted are these: 100 mg/kg i.g. daily; for inhibition rate (absolute %): PTE % vs vehicle; for MWT: mean±SEM; for inhibition rate (relative %): relative to sham minus vehicle. The protocol: (§2) SD rats, body weight 180 g-220 g, half of them being male and the other half being female, provided by the Department of Laboratory Animals, Peking University. The rats were raised in a standard environment with temperature of 22±0.5° C. and relative humidity of 55±5%, 12 h/12 h light-dark cycle, and fed with standard feed.
(§3) Rat was anesthetized with pentobarbital sodium (60 mg/kg, i.p.), the right hind limb was surgically shaved, fixed in the prone position, a longitudinal incision was made along the middle of the right hind limb of the rat, the muscle was bluntly separated, the sciatic nerve was exposed, and the sciatic nerve bifurcate proximal end was loosely ligated with 4-0 silk suture for 4 times, with an interval of about 1 mm each time, in which the degree of tightness was suitable when it was observed that the right hind leg was slightly shaken. After ligation, the muscle and skin were sutured in sequence. For the sham-operated group, the sciatic nerve was only exposed, but not ligated. The success of modeling was determined by observing whether the hind limb of the rat's operation side was closed, slightly valgus and often vacated, and by measuring the mechanical stimulation paw withdrawal threshold and the thermal stimulation paw withdrawal latency of the rat.
(§4) Before surgery, the mechanical stimulation paw withdrawal thresholds and the thermal stimulation paw withdrawal latencies in the rats were determined, and the rats were grouped as: sham operation group (sham), vehicle group (double-distilled water, i.g.), DXL-A-22 group (2 mg/kg, i.g.), DXL-A-24 group (1 mg/kg, i.g.), and Gabapentin group (100 mg/kg, i.g.). All compounds and drugs were dissolved in double-distilled water, and given by intragastric administration at 1 mL/100 g. From the first day after surgery, the administration was carried out every day, and the mechanical stimulation paw withdrawal threshold and the thermal stimulation paw withdrawal latency were measured 2 hours after administration.
The mechanical stimulation paw withdrawal threshold (MWT) of rats was detected by von Frey electronic pain tester. The measurement was carried out on the days 5, 7 and 14 after operation. The rats were placed in a transparent plexiglass box (whose bottom was a wire mesh with a gap of 1 mm^2) to adapt to the environment for 30 min. After the rats had no exploration action, the von Frey electronic pain tester was used to stimulate the middle position of paw at the operation side of the rat, and the maximum force caused by rat paw withdrawal response (i.e., MWT) was recorded. The inhibition rate of the compound was calculated according to the following formula:
Absolute increase rate (i.e., PTE %): PTE %=(MWT of test group−MWT of vehicle group)/MWT of vehicle group×100 (1)
Relative increase rate: Inhibition rate %=(MWT of test group−MWT of vehicle group)/(MWT of Sham operation group−MWT of vehicle group)×100 (2)

The test system of assay [6] is CCI rats. The assay can be described thus: Thermal stimulation paw withdrawal latency (PWL) in CCI rats. The conditions noted are these: 100 mg/kg i.g. daily; for PWL: hot plate 50.5° C., cut-off 14s, mean±SEM. The assay is classed as in vivo, SD rats. The protocol:
as §2, §3, §4
The thermal stimulation paw withdrawal latency (PWL) was measured by a hot plate method. The measurement was carried out on the days 5, 7 and 14 after operation. The temperature of the hot plate was 50.5° C. Timing started when the rat was placed on the hot plate, and stopped when the shaking and foot licking responses of the rat appeared, and this time was the PWL of the rat. The hot plate cut-off time was 14s, and the percentage of analgesia (i.e., MPE %) was calculated according to formula (3):
MPE %=(PWL of test group−PWL of vehicle group)/(cut-off time−PWL of vehicle group)×100 (3)

[7] abbreviates: Day 5 after operation, section 3.1.
[8] abbreviates: Day 5 after operation, section 3.3.
[9] abbreviates: Day 7 after operation, section 3.1.
[10] abbreviates: Day 7 after operation, section 3.3.
Where [11] appears, read: Day 14 after operation, section 3.1.
The mark [12] stands for this setting: Day 14 after operation, section 3.3.
Where [13] appears, read: Day 5 after operation, section 3.2.
[14] abbreviates: Day 5 after operation, section 3.4.
Setting [15] is: Day 7 after operation, section 3.2.
The mark [16] stands for this setting: Day 7 after operation, section 3.4.
Setting [17] is: Day 14 after operation, section 3.2.
The mark [18] stands for this setting: Day 14 after operation, section 3.4.

For the compound `Clc1cccc(N2CC[N+]3(CCCC3)CC2)c1` [DXL-A-05, 8-(3-chlorophenyl)-5,8-diazaspiro[4.5]decan-5-ium bromide], in the assay with ICR mice [1], the change in vivo at 3 mg/kg was determined as 19.5%. The inhibition in vivo at 3 mg/kg with ICR mice [2] (3 mg/kg intragastric) was 22.5%; with ICR mice [4] (Mus musculus, po, 2 h, 3 mg/kg intragastric, read-out: Inhibition rate (%)), 30.8%. Moreover, the inhibition in vivo at 9 mg/kg in the assay with ICR mice [3] (9 mg/kg intragastric) came out at 32.9%.

Turning to `Fc1ccccc1N1CC[N+]2(CCCC2)CC1.[Br-]` [DXL-A-18, 8-(2-fluorophenyl)-5,8-diazaspiro[4.5]decan-5-ium bromide], the inhibition in vivo at 1 mg/kg in the assay with ICR mice [2] (1 mg/kg intragastric) came out at 21.7%; with ICR mice [3] (1 mg/kg intragastric) it was 22%. For the same compound, the “Inhibition rate (%)” value in the assay on ICR mice [4] (1 mg/kg intragastric) is listed as “—”.

Consider `NCC1(CC(=O)O)CCCCC1` [Gabapentin, reference compound], for which the “inhibition rate (absolute %)” value came to 99.36% in the assay on CCI rats [5] (setting [7]); 87.98% in the assay with CCI rats [5] (setting [8]); 128.67% in the assay on CCI rats [5] (setting [9]); 123.00% in the assay with CCI rats [5] (setting [10]); 101.42% in the assay with CCI rats [5] (setting [11]); 83.36% with CCI rats [5] (setting [12]). In addition, the MWT in the assay on CCI rats [5] (setting [7]) was 21.73 ± 0.49**/; with CCI rats [5] (setting [8]), 21.73 ± 0.49**/; with CCI rats [5] (setting [9]), 23.37 ± 1.34**/; with CCI rats [5] (setting [10]) it was 23.37 ± 1.34**/; with CCI rats [5] (setting [11]) it was 21.27 ± 0.82**/; with CCI rats [5] (setting [12]), 21.27 ± 0.82**/. Moreover, the “inhibition rate (relative %)” value with CCI rats [5] (setting [7]) was 40.08%; in the assay with CCI rats [5] (setting [8]) it was 41.04%; with CCI rats [5] (setting [9]), 47.56%; with CCI rats [5] (setting [10]), 49.94%; with CCI rats [5] (setting [11]), 38.46%; in the assay on CCI rats [5] (setting [12]), 36.91%. Besides, the PWL in the assay on CCI rats [6] (setting [13]) is recorded as 11.37 ± 0.32**/; in the assay on CCI rats [6] (setting [14]), 11.37 ± 0.32**/; with CCI rats [6] (setting [15]) it was 11.76 ± 0.34**/; in the assay with CCI rats [6] (setting [16]), 11.76 ± 0.34**/; in the assay with CCI rats [6] (setting [17]), 11.88 ± 0.40**/; with CCI rats [6] (setting [18]), 11.88 ± 0.40**/. Further, the “MPE(%)” value stood at 59.72% in the assay on CCI rats [6] (setting [13]); 54.02% with CCI rats [6] (setting [14]); 66.16% with CCI rats [6] (setting [15]); 62.48% in the assay with CCI rats [6] (setting [16]); 66.51% in the assay with CCI rats [6] (setting [17]); 67.88% in the assay on CCI rats [6] (setting [18]).

Take `CC(C)Cc1ccc(C(C)C(=O)O)cc1` (centres unmarked) [Ibuprofen table, Ibuprofen, reference compound]: the inhibition in vivo at 200 mg/kg with ICR mice [2] (200 mg/kg intragastric) worked out at 49.1%.
